The conditions of series [1]: intravenous injection, animal-based work; cited from earlier work.
For series [2] the following is noted: intranasal 16 or 24 IU; cited from earlier work.
The nature of series [3]: Plasma OXT concentration after intranasal OXT. Type of series: in vivo. The following applies: male, human, inhaled or intranasal, 24 IU.
For series [4] the following is noted: cited from earlier work.
The conditions of series [5]: monkeys, starting level, cervical puncture; cited from earlier work.
For series [6] the following is noted: cited from earlier work. The source holds these as a separate data set.
For series [7] the following is noted: humans, cited from earlier work.

Consider `CC[C@H](C)[C@@H]1NC(=O)[C@H](Cc2ccc(O)cc2)NC(=O)[C@@H](N)CSSC[C@@H](C(=O)N2CCC[C@H]2C(=O)N[C@@H](CC(C)C)C(=O)NCC(N)=O)NC(=O)[C@H](CC(N)=O)NC(=O)[C@H](CCC(N)=O)NC1=O` [OXT, oxytocin], for which the “fraction of the peptide that crossed the blood-brain barrier (BBB)” value in series [1] is on record as “approximately 0.01%”. Further, the “duration of increase in OXT saliva concentrations” value in series [2] is reported as “up to 7 h”. The Tmax (commonly the time at which the peak concentration occurs) in series [3] was 15 min. This compound gave a level at 1.5 h in series [3] (SD) of 0.0123 ± 0.006 ng/mL. For the same compound, the “increase of half-life in CSF (compared to plasma)” value in series [4] was 30–40 fold. In series [5], the “OXT CSF concentration before increase” value is “around 20 pg/ml”. The “time of increases in OXT plasma concentrations” value in series [6] (intranasal 24 IU) was 30 to 40 min. In series [6] (intranasal OXT 30 IU, three male volunteers), the “time of peak elevated OXT plasma concentrations” value is 10 to 40 min.
Regarding “arginine vasopressin [arginine vasopressin (AVP)]”, in series [7] (intranasal 40 IU), the “time to increase in CSF concentrations” value is reported as “up to 60 min”. Besides, in series [7] (intranasal 80 IU), the “increase in CSF concentrations (fold)” value is recorded as “up to 4 fold” and the “time to significant increase in CSF concentrations” value is listed as 10 min.
